# Source: PubChem BioAssay AID256 (DTP/NCI, 2004)
# Where “and” joins values, the source holds several entries; their conditions need not be identical. Equal entries are not always repeated. Toxic doses and inconclusive results are not listed.
# Tested on: CD2F1 mice, L1210 leukemia ip, survival T/C
# Experiment: NCI In Vivo Anticancer Drug Screen. Data for tumor model L1210 Leukemia (intraperitoneal) in CD2F1 (CDF1) mice
# Details: higher = longer survival
# In short: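 Activity against a transplanted murine tumor was judged by comparing the compound group with a vehicle group. The outcome in the treated animals was divided by that in the controls.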
# [1] = endpoint: mean survival time, dose: 100.0 mg/kg/injection, schedule: Q01DX009 (ip), vehicle: saline with Tween-80
# [2] = endpoint: mean survival time, dose: 100.0 mg/kg/injection, schedule: Q04DX003 (ip), vehicle: saline with Tween-80
# [3] = endpoint: mean survival time, dose: 200.0 mg/kg/injection, schedule: Q01DX009 (ip), vehicle: saline with Tween-80
# [4] = endpoint: mean survival time, dose: 200.0 mg/kg/injection, schedule: Q04DX003 (ip), vehicle: saline with Tween-80
# [5] = endpoint: mean survival time, dose: 400.0 mg/kg/injection, schedule: Q01DX009 (ip), vehicle: saline with Tween-80
# [6] = endpoint: mean survival time, dose: 400.0 mg/kg/injection, schedule: Q04DX003 (ip), vehicle: saline with Tween-80
# [7] = endpoint: mean survival time, dose: 100.0 mg/kg/injection, schedule: Q01DX001 (ip), vehicle: saline with Tween-80
# [8] = endpoint: mean survival time, dose: 400.0 mg/kg/injection, schedule: Q01DX001 (ip), vehicle: saline with Tween-80
# [9] = endpoint: mean survival time, dose: 50.0 mg/kg/injection, schedule: Q01DX009 (ip), vehicle: saline with Tween-80
# [10] = endpoint: mean survival time, dose: 200.0 mg/kg/injection, schedule: Q01DX001 (ip), vehicle: saline with Tween-80
# [11] = endpoint: mean survival time, dose: 25.0 mg/kg/injection, schedule: Q04DX003 (ip), vehicle: saline
# [12] = endpoint: mean survival time, dose: 50.0 mg/kg/injection, schedule: Q04DX003 (ip), vehicle: saline
# [13] = endpoint: mean survival time, dose: 100.0 mg/kg/injection, schedule: Q04DX003 (ip), vehicle: saline
smiles,measurement,setting,value
O=C(N=C1OC2C(OC(=O)c3ccccc3)C(COC(=O)c3ccccc3)OC2N1C(=O)c1ccccc1)c1ccccc1 (stereo unspecified),T/C,"endpoint: mean survival time, dose: 100.0 mg/kg/injection, schedule: Q01DX009 (ip), vehicle: saline",100 % of control
same,T/C,"endpoint: mean survival time, dose: 200.0 mg/kg/injection, schedule: Q01DX009 (ip), vehicle: saline",100 % of control
same,T/C,"endpoint: median survival time, dose: 100.0 mg/kg/injection, schedule: Q04DX003 (ip), vehicle: saline sonified",87 % of control
same,T/C,"endpoint: median survival time, dose: 200.0 mg/kg/injection, schedule: Q04DX003 (ip), vehicle: saline sonified",100 % of control
same,T/C,"endpoint: median survival time, dose: 400.0 mg/kg/injection, schedule: Q04DX003 (ip), vehicle: saline sonified",100 % of control
O=P(O)(O)OC1OC(n2cnc3c(NCc4ccc(F)cc4)ncnc32)C(O)C1O (stereo unspecified),T/C,"endpoint: median survival time, dose: 12.5 mg/kg/injection, schedule: Q01DX005 (ip), vehicle: saline",101 % of control
same,T/C,"endpoint: median survival time, dose: 25.0 mg/kg/injection, schedule: Q01DX005 (ip), vehicle: saline",101 % of control
same,T/C,"endpoint: median survival time, dose: 50.0 mg/kg/injection, schedule: Q01DX005 (ip), vehicle: saline",92 % of control
same,T/C,"endpoint: median survival time, dose: 100.0 mg/kg/injection, schedule: Q01DX005 (ip), vehicle: saline",92 % of control
same,T/C,"endpoint: median survival time, dose: 200.0 mg/kg/injection, schedule: Q01DX005 (ip), vehicle: saline",100 % of control
CC12C=C(C(=O)c3ccccc3)C(CC1)C2(C)C (stereo unspecified),T/C,[1],95 % of control
same,T/C,[2],96 % of control
same,T/C,[3],97 % of control
same,T/C,[4],93 % of control
same,T/C,[5],97 % of control
same,T/C,[6],91 % of control
S=c1sc2ccccc2n1CN1CCOCC1,T/C,"endpoint: median survival time, dose: 12.5 mg/kg/injection, schedule: Q01DX009 (ip), vehicle: saline with Tween-80",97 % of control and 104 % of control
same,T/C,"endpoint: median survival time, dose: 25.0 mg/kg/injection, schedule: Q01DX009 (ip), vehicle: saline with Tween-80",100 % of control
same,T/C,"endpoint: median survival time, dose: 50.0 mg/kg/injection, schedule: Q01DX009 (ip), vehicle: saline with Tween-80",101 % of control and 106 % of control
same,T/C,"endpoint: median survival time, dose: 100.0 mg/kg/injection, schedule: Q01DX009 (ip), vehicle: saline with Tween-80",101 % of control and 108 % of control
same,T/C,"endpoint: median survival time, dose: 200.0 mg/kg/injection, schedule: Q01DX009 (ip), vehicle: saline with Tween-80",98 % of control and 100 % of control
COC(=O)c1cc(Cl)cc(C(=O)OC)c1,T/C,[1],95 % of control
same,T/C,[3],88 % of control
CC(=O)OC(C(=O)N(c1ccccc1)c1ccccc1)c1ccccc1 (stereo unspecified),T/C,[2],100 % of control
same,T/C,[4],94 % of control
same,T/C,[6],108 % of control
Nc1c(-c2nccc(=O)[nH]2)ncn1C1OC(CO)C(O)C1O (stereo unspecified),T/C,"endpoint: median survival time, dose: 12.5 mg/kg/injection, schedule: Q01DX005 (ip), vehicle: saline with Tween-80",102 % of control
same,T/C,"endpoint: median survival time, dose: 25.0 mg/kg/injection, schedule: Q01DX005 (ip), vehicle: saline with Tween-80",96 % of control
same,T/C,"endpoint: median survival time, dose: 50.0 mg/kg/injection, schedule: Q01DX005 (ip), vehicle: saline with Tween-80",103 % of control
same,T/C,"endpoint: median survival time, dose: 100.0 mg/kg/injection, schedule: Q01DX005 (ip), vehicle: saline with Tween-80",98 % of control
same,T/C,"endpoint: median survival time, dose: 200.0 mg/kg/injection, schedule: Q01DX005 (ip), vehicle: saline with Tween-80",102 % of control
CCCCCCCCCCCCCCCCCCSc1ccc(Br)cc1,T/C,[7],92 % of control
same,T/C,[8],86 % of control
CC(C)(C)OC(=O)NC(CSC(c1ccccc1)(c1ccccc1)c1ccccc1)C(=O)O (stereo unspecified),T/C,"endpoint: mean survival time, dose: 75.0 mg/kg/injection, schedule: Q01DX001 (ip), vehicle: saline",93 % of control
N#CCC(C#N)N1CCOCC1 (stereo unspecified),T/C,"endpoint: mean survival time, dose: 25.0 mg/kg/injection, schedule: Q01DX009 (ip), vehicle: saline with Tween-80",98 % of control
same,T/C,[9],102 % of control
same,T/C,[1],102 % of control
O=C(Nc1ccc(C(=O)O)cc1)OCc1ccccc1,T/C,[2],100 % of control
same,T/C,[4],101 % of control
same,T/C,[6],91 % of control
O=C(O)CO.[NH2-].[NH2-].[Pt+2],T/C,"endpoint: median survival time, dose: 20.0 mg/kg/injection, schedule: Q04DX003 (ip), vehicle: saline",192 % of control and 238 % of control
same,T/C,"endpoint: median survival time, dose: 40.0 mg/kg/injection, schedule: Q04DX003 (ip), vehicle: saline",182 % of control and 340 % of control
same,T/C,"endpoint: median survival time, dose: 80.0 mg/kg/injection, schedule: Q04DX003 (ip), vehicle: saline",98 % of control and 102 % of control
O=c1[nH]c(Cc2ccccc2)c(N=Nc2ccccc2)c(=O)[nH]1,T/C,[10],90 % of control
same,T/C,[8],89 % of control
CC(Oc1ccccc1)C(=O)c1ccccc1 (stereo unspecified),T/C,[1],93 % of control
same,T/C,[2],97 % of control
same,T/C,[3],93 % of control
same,T/C,[4],100 % of control
same,T/C,[5],96 % of control
same,T/C,[6],90 % of control
Cc1ccc(S(=O)(=O)N/N=C/Cc2c(C(C)C)cc(C(C)C)cc2C(C)C)cc1,T/C,"endpoint: median survival time, dose: 50.0 mg/kg/injection, schedule: Q04DX002 (ip), vehicle: saline with Tween-80",100 % of control
same,T/C,"endpoint: median survival time, dose: 100.0 mg/kg/injection, schedule: Q04DX002 (ip), vehicle: saline with Tween-80",100 % of control
same,T/C,"endpoint: median survival time, dose: 200.0 mg/kg/injection, schedule: Q04DX002 (ip), vehicle: saline with Tween-80",110 % of control
same,T/C,"endpoint: median survival time, dose: 400.0 mg/kg/injection, schedule: Q04DX002 (ip), vehicle: saline with Tween-80",100 % of control
COC(=O)/C(C#N)=C\c1ccccc1,T/C,[9],95 % of control
same,T/C,[1],95 % of control
same,T/C,[3],92 % of control
CC(NC(=O)CN)C(=O)O (stereo unspecified),T/C,"endpoint: mean survival time, dose: 100.0 mg/kg/injection, schedule: Q01DX001 (ip), vehicle: saline",100 % of control
same,T/C,"endpoint: mean survival time, dose: 200.0 mg/kg/injection, schedule: Q01DX001 (ip), vehicle: saline",100 % of control
same,T/C,"endpoint: mean survival time, dose: 400.0 mg/kg/injection, schedule: Q01DX001 (ip), vehicle: saline",104 % of control
O=S(=O)(CC(Br)C(Br)CO)c1ccccc1 (stereo unspecified),T/C,"endpoint: median survival time, dose: 25.0 mg/kg/injection, schedule: Q04DX003 (ip), vehicle: saline with Tween-80",111 % of control
same,T/C,"endpoint: median survival time, dose: 50.0 mg/kg/injection, schedule: Q04DX003 (ip), vehicle: saline with Tween-80",122 % of control
same,T/C,"endpoint: median survival time, dose: 100.0 mg/kg/injection, schedule: Q04DX003 (ip), vehicle: saline with Tween-80",111 % of control
same,T/C,"endpoint: median survival time, dose: 200.0 mg/kg/injection, schedule: Q04DX003 (ip), vehicle: saline with Tween-80",100 % of control
O=C(O)c1c(Cl)c(Cl)c(Cl)c(Cl)c1Cl,T/C,[2],98 % of control
same,T/C,[4],98 % of control
same,T/C,[6],98 % of control
O=C1C=CC(=O)N1c1ccc(Br)cc1 (tested in a mixture with another compound),T/C,"endpoint: mean survival time, dose: 100.0 mg/kg/injection, schedule: Q01DX009 (ip), vehicle: acetone",98 % of control
same,T/C,"endpoint: mean survival time, dose: 200.0 mg/kg/injection, schedule: Q01DX009 (ip), vehicle: acetone",95 % of control
Cc1ccc(S(=O)(=O)N(O)S(=O)(=O)c2ccc(C)cc2)cc1,T/C,[7],101 % of control
same,T/C,[1],94 % of control
same,T/C,[10],94 % of control
same,T/C,[3],92 % of control
same,T/C,[8],100 % of control
same,T/C,[5],94 % of control
CN(C)CCCn1c2ccccc2c2cnccc21,T/C,[11],98 % of control
same,T/C,[12],110 % of control
same,T/C,[13],113 % of control
OC(CCc1ccccc1)(C(F)(F)F)C(F)(F)F,T/C,"endpoint: mean survival time, dose: 100.0 mg/kg/injection, schedule: Q04DX003 (ip), vehicle: Klucel (hydroxypropylcellulose) (HPC)",92 % of control
same,T/C,"endpoint: mean survival time, dose: 200.0 mg/kg/injection, schedule: Q04DX003 (ip), vehicle: Klucel (hydroxypropylcellulose) (HPC)",95 % of control
same,T/C,"endpoint: mean survival time, dose: 400.0 mg/kg/injection, schedule: Q04DX003 (ip), vehicle: Klucel (hydroxypropylcellulose) (HPC)",97 % of control
COC(=O)C(C(=O)OC(C)C)C(=O)OC(C)C,T/C,"endpoint: mean survival time, dose: 50.0 mg/kg/injection, schedule: Q01DX001 (ip), vehicle: Klucel (hydroxypropylcellulose) (HPC)",105 % of control
same,T/C,"endpoint: mean survival time, dose: 100.0 mg/kg/injection, schedule: Q01DX001 (ip), vehicle: Klucel (hydroxypropylcellulose) (HPC)",96 % of control
same,T/C,"endpoint: mean survival time, dose: 200.0 mg/kg/injection, schedule: Q01DX001 (ip), vehicle: Klucel (hydroxypropylcellulose) (HPC)",99 % of control
CN(C)CCOc1cccc(Br)c1,T/C,[11],100 % of control
same,T/C,[12],100 % of control
same,T/C,[13],100 % of control
O=Cc1c2c(cc3ccccc13)Nc1ccccc1N2,T/C,"endpoint: mean survival time, dose: 100.0 mg/kg/injection, schedule: Q04DX002 (ip), vehicle: saline + alcohol",89 % of control
same,T/C,"endpoint: mean survival time, dose: 200.0 mg/kg/injection, schedule: Q04DX002 (ip), vehicle: saline + alcohol",89 % of control
same,T/C,"endpoint: mean survival time, dose: 400.0 mg/kg/injection, schedule: Q04DX002 (ip), vehicle: saline + alcohol",86 % of control
